Measurements from article PMC4460250, “Systems Pharmacology Dissecting Holistic Medicine for Treatment of Complex Diseases: An Example Using Cardiocerebrovascular Diseases Treated by TCM” (Evidence-based Complementary and Alternative Medicine : eCAM, 2015).

How the values were obtained:
[1] = in vivo; cited from earlier work
[2] = in vivo

SMILES	HIA(Human Intestinal Absorption) [1]	Class(High: HIA value ≥0.7; Low: HIA value < 0.7) [2]
COC(=O)C1=C(C#N)NC(C)=C(C(=O)OC(C)C)[C@@H]1c1cccc([N+](=O)[O-])c1 [Nilvadipine(S)]	1	High (key: High: HIA value ≥0.7; Low: HIA value < 0.7)
CCC1(CCC(C)C)C(=O)NC(=O)NC1=O [Amobarbital]	0.95	High (key: High: HIA value ≥0.7; Low: HIA value < 0.7)
CC[C@]1(c2ccc(N)cc2)CCC(=O)NC1=O [Aminoglutethimide(R)]	1	High (key: High: HIA value ≥0.7; Low: HIA value < 0.7)
CC(C)NC[C@H](O)COc1cccc2[nH]ccc12 [Pindolol(S)]	0.9	High (key: High: HIA value ≥0.7; Low: HIA value < 0.7)
CCN(CCCCOC(=O)c1ccc(OC)c(OC)c1)[C@H](C)Cc1ccc(OC)cc1 [Mebeverine(R)]	0.9	High (key: High: HIA value ≥0.7; Low: HIA value < 0.7)
COc1ccc2c3c1O[C@H]1[C@@H](O)C=C[C@H]4[C@@H](C2)N(C)CC[C@@]341 [Codeine]	0.93	High (key: High: HIA value ≥0.7; Low: HIA value < 0.7)
C[C@@H]1COc2c(N3CCN(C)CC3)c(F)cc3c(=O)c(C(=O)O)cn1c23 [Ofloxacin(R)]	1	High (key: High: HIA value ≥0.7; Low: HIA value < 0.7)
CN(Cc1cnc2nc(N)nc(N)c2n1)c1ccc(C(=O)N[C@@H](CCC(=O)O)C(=O)O)cc1 [Methotrexate(S)]	1	High (key: High: HIA value ≥0.7; Low: HIA value < 0.7)
CCCC[C@H]1C(=O)N(c2ccccc2)N(c2ccc(O)cc2)C1=O [Oxyphenbutazone(S)]	1	High (key: High: HIA value ≥0.7; Low: HIA value < 0.7)
O=C(c1ccccc1)c1ccc2n1CC[C@@H]2C(=O)O [Ketorolac(S)]	0.95	High (key: High: HIA value ≥0.7; Low: HIA value < 0.7)
C[C@]12CC[C@H]3[C@@H](CCC4=CC(=O)CC[C@@]43C)[C@@H]1CC[C@@H]2O [Testosterone]	1	High (key: High: HIA value ≥0.7; Low: HIA value < 0.7)
CCC(C(N)=O)N1CCCC1=O (stereo in doubt) [Levetiracetam(R)]	1	High (key: High: HIA value ≥0.7; Low: HIA value < 0.7)
COC(=O)C1=C(C)NC(C)=C(C(=O)OCC(C)C)[C@@H]1c1ccccc1[N+](=O)[O-] [Nisoldipine(R)]	0.9	High (key: High: HIA value ≥0.7; Low: HIA value < 0.7)
COc1cccc2c1C(=O)c1c(O)c3c(c(O)c1C2=O)C[C@@](O)(C(C)=O)C[C@@H]3O[C@H]1C[C@H](N)[C@H](O)[C@H](C)O1 [Daunorubicin]	0.1	Low (key: High: HIA value ≥0.7; Low: HIA value < 0.7)
CCN(CC)[C@@H](C)C(=O)c1ccccc1 [Diethylpropion(S)]	0.95	High (key: High: HIA value ≥0.7; Low: HIA value < 0.7)
CC[C@]1(c2cccc(O)c2)CCCCN(C)C1 [Meptazinol(R)]	1	High (key: High: HIA value ≥0.7; Low: HIA value < 0.7)
Cn1c(=O)c2c(ncn2CCCNC[C@@H](O)c2cc(O)cc(O)c2)n(C)c1=O [Reproterol(S)]	0.6	Low (key: High: HIA value ≥0.7; Low: HIA value < 0.7)
CN[C@@H]1[C@@H](O)[C@@H](O[C@@H]2[C@@H](O)[C@H](O[C@H]3O[C@H]([C@@H](C)N)CC[C@H]3N)[C@@H](N)C[C@H]2N)OC[C@]1(C)O [GentamicinC2(R)]	0.01	Low (key: High: HIA value ≥0.7; Low: HIA value < 0.7)
C[C@H](c1cc2ccccc2s1)N(O)C(N)=O [Zileuton(R)]	1	High (key: High: HIA value ≥0.7; Low: HIA value < 0.7)
CC[C@@H](C(N)=O)N1CCCC1=O [Levetiracetam(S)]	1	High (key: High: HIA value ≥0.7; Low: HIA value < 0.7)
CCN1CCCC1CNC(=O)c1cc(S(N)(=O)=O)ccc1OC (stereo not shown) [Sulpiride]	0.44	Low (key: High: HIA value ≥0.7; Low: HIA value < 0.7)
CC(C)(Oc1ccc([C@@H]2CC2(Cl)Cl)cc1)C(=O)O [Ciprofibrate(S)]	0.99	High (key: High: HIA value ≥0.7; Low: HIA value < 0.7)
CCCCCCCN(CC)CCC[C@@H](O)c1ccc(NS(C)(=O)=O)cc1 [Ibutilide(R)]	0.82	High (key: High: HIA value ≥0.7; Low: HIA value < 0.7)
CCCCC(C)(O)C/C=C/[C@H]1[C@H](O)CC(=O)[C@@H]1CCCCCCC(=O)OC (stereo partly drawn) [Misoprostol(R)]	0.88	High (key: High: HIA value ≥0.7; Low: HIA value < 0.7)

SMILES	HIA(Human Intestinal Absorption) [1]	Class(High: HIA value ≥0.7; Low: HIA value < 0.7) [2]
CC(C)NC[C@H](O)c1cc(O)cc(O)c1 [Metaproterenol(R)]	0.43	Low (key: High: HIA value ≥0.7; Low: HIA value < 0.7)
CN1C(=O)C[C@](C)(c2ccccc2)C1=O [Methsuximide(R)]	1	High (key: High: HIA value ≥0.7; Low: HIA value < 0.7)
N[C@H](CO)C(=O)NNCc1ccc(O)c(O)c1O [Benserazide(R)]	0.7	High (key: High: HIA value ≥0.7; Low: HIA value < 0.7)
CN1[C@H](CSCC(F)(F)F)Nc2cc(Cl)c(S(N)(=O)=O)cc2S1(=O)=O [Polythiazide(R)]	1	High (key: High: HIA value ≥0.7; Low: HIA value < 0.7)
COCCc1ccc(OC[C@@H](O)CNC(C)C)cc1 [Metoprolol(S)]	0.96	High (key: High: HIA value ≥0.7; Low: HIA value < 0.7)
CC(=O)Nc1ccc(OC[C@@H](O)CNC(C)C)cc1 [Practolol(S)]	0.95	High (key: High: HIA value ≥0.7; Low: HIA value < 0.7)
Cc1cc(=O)n(-c2ccccc2)n1C [Antipyrine]	0.97	High (key: High: HIA value ≥0.7; Low: HIA value < 0.7)
Cc1ccccc1N1C(=O)c2cc(S(N)(=O)=O)c(Cl)cc2N[C@@H]1C [Metolazone(S)]	0.64	Low (key: High: HIA value ≥0.7; Low: HIA value < 0.7)
CN1C(=O)C[C@@](C)(c2ccccc2)C1=O [Methsuximide(S)]	1	High (key: High: HIA value ≥0.7; Low: HIA value < 0.7)
CCN(CC)CCCOC(=O)C1(c2ccccc2)CC2CCC1C2 (stereo not shown) [Bornaprine]	1	High (key: High: HIA value ≥0.7; Low: HIA value < 0.7)
CCn1cc(C(=O)O)c(=O)c2cc(F)c(N3CCN[C@H](C)C3)c(F)c21 [Lomefloxacin(R)]	0.99	High (key: High: HIA value ≥0.7; Low: HIA value < 0.7)
N=C(N)NC[C@H]1COc2ccccc2O1 [Guanoxan(S)]	0.5	Low (key: High: HIA value ≥0.7; Low: HIA value < 0.7)
COc1ccc(C[C@@H](C)N)cc1 [Methoxyamphetamine(R)]	0.8	High (key: High: HIA value ≥0.7; Low: HIA value < 0.7)
CC(C)(Oc1ccc([C@H]2CC2(Cl)Cl)cc1)C(=O)O [Ciprofibrate(R)]	0.99	High (key: High: HIA value ≥0.7; Low: HIA value < 0.7)
COc1cc2nc(N3CCN(C(=O)[C@H]4CCCO4)CC3)nc(N)c2cc1OC [Terazosin(R)]	0.91	High (key: High: HIA value ≥0.7; Low: HIA value < 0.7)
CCN(CC)CC[C@]1(c2ccccc2)CCC(=O)NC1=O [Phenglutarimide(S)]	1	High (key: High: HIA value ≥0.7; Low: HIA value < 0.7)
CCCCCc1cc(O)c2c(c1)OC(C)(C)[C@@H]1CCC(C)=C[C@@H]21 [Tetrahydrocannabinol]	0.93	High (key: High: HIA value ≥0.7; Low: HIA value < 0.7)
C=CCOc1ccccc1OC[C@@H](O)CNC(C)C [Oxprenolol(S)]	0.95	High (key: High: HIA value ≥0.7; Low: HIA value < 0.7)
COC(=O)C1=C(C)NC(C)=C(C(=O)OCCN(C)Cc2ccccc2)[C@H]1c1cccc([N+](=O)[O-])c1 [Nicardipine(S)]	0.95	High (key: High: HIA value ≥0.7; Low: HIA value < 0.7)
NC(=O)C[S+]([O-])C(c1ccccc1)c1ccccc1 (stereo not shown) [Modafinil]	0.8	High (key: High: HIA value ≥0.7; Low: HIA value < 0.7)
C[C@@H](c1cc2ccccc2s1)N(O)C(N)=O [Zileuton(S)]	1	High (key: High: HIA value ≥0.7; Low: HIA value < 0.7)
O=C1CN=C(c2ccccc2)c2cc([N+](=O)[O-])ccc2N1 [Nitrazepam]	0.95	High (key: High: HIA value ≥0.7; Low: HIA value < 0.7)
CC(=O)Nc1ccc(OC[C@H](O)CNC(C)C)cc1 [Practolol(R)]	0.95	High (key: High: HIA value ≥0.7; Low: HIA value < 0.7)
